# Measurements reported in patent US20190105367A1, “ANTIMICROBIAL 4-OXOQUINOLIZINES” (Emergent Product Development Gaithersburg Inc., priority 2011, published 2019).
# Like-named read-outs stand apart in the source and are kept apart here.
# How the values were obtained:
# [1] = system: strains of A. baumannii and one strain of Acinetobacter sp.; experiment: MIC with sub-inhibitory concentrations (0.25x MIC) of polymyxin B, panel of Acinetobacter strains (Example 4); assay type: cell-based
# A. baumannii ATCC 19606 [2] = experiment: MIC without and with sub-inhibitory polymyxin B (Example 4); assay type: cell-based, Acinetobacter baumannii; conditions: for MIC without PB/MIC + PB: A. baumannii ATCC 19606; for MIC: Acinetobacter baumannii
# A. baumannii ATCC 19606 [3] = experiment: Preliminary MBC without and with sub-inhibitory polymyxin B (Example 4); assay type: cell-based, Acinetobacter baumannii; conditions: Acinetobacter baumannii
# A. baumannii J2 = experiment: MIC without and with sub-inhibitory polymyxin B (Example 4); assay type: cell-based, Acinetobacter baumannii; conditions: for MIC without PB/MIC + PB: A. baumannii J2; for MIC: Acinetobacter baumannii
# [4] = system: Acinetobacter sp. (H064200250); experiment: as above; assay type: cell-based
# A. baumannii A329 = experiment: as above; assay type: cell-based, Acinetobacter baumannii; conditions: A. baumannii A329; +0.06 μg/ml PB; 2nd experiment
# A. baumannii A387 [5] = experiment: as above; assay type: cell-based, Acinetobacter baumannii; conditions: for MIC without PB/MIC + PB: A. baumannii A387
# A. baumannii A387 [6] = experiment: Preliminary MBC without and with sub-inhibitory polymyxin B (Example 4); assay type: cell-based, Acinetobacter baumannii; conditions: Acinetobacter baumannii, A387, A. baumannii A387, +0.06 μg/ml PB, 2nd experiment, read-out: MBC
# A. baumannii A390 [7] = experiment: MIC without and with sub-inhibitory polymyxin B (Example 4); assay type: cell-based, Acinetobacter baumannii; conditions: +0.06 μg/ml PB, 2nd experiment
# A. baumannii A14 [8] = experiment: Preliminary MBC without and with sub-inhibitory polymyxin B (Example 4); assay type: cell-based, Acinetobacter baumannii; conditions: A. baumannii A14, +0.06 μg/ml PB, 2nd experiment
# Method in brief: (§1)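 After plating, cultures are held at 37° C for 18-20 hours; the endpoint is then scored by comparing colony growth against the positive control, with MBC defined as the lowest concentration showing roughly 90% reduction.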
# A. baumannii A390 [9] = experiment: as above; assay type: cell-based, Acinetobacter baumannii; conditions: Acinetobacter baumannii, A390, A. baumannii A390, +0.06 μg/ml PB, 2nd experiment, read-out: MBC
# Method in brief: as §1
# A. baumannii A473 [10] = experiment: as above; assay type: cell-based, Acinetobacter baumannii; conditions: Acinetobacter baumannii, A473, A. baumannii A473, +0.06 μg/ml PB, 2nd experiment, read-out: MBC
# Method in brief: as §1
# A. baumannii NCTC 13301 [11] = experiment: as above; assay type: cell-based, Acinetobacter baumannii; conditions: Acinetobacter baumannii
# Method in brief: as §1
# A. baumannii A401 = experiment: MIC without and with sub-inhibitory polymyxin B (Example 4); assay type: cell-based, Acinetobacter baumannii; conditions: A baumannii A 401; ratio, PB 0.06 μg/ml; 1st experiment
# A. baumannii A472 [12] = experiment: as above; assay type: cell-based, Acinetobacter baumannii; conditions: for MIC: Acinetobacter baumannii
# A. baumannii A472 [13] = experiment: Preliminary MBC without and with sub-inhibitory polymyxin B (Example 4); assay type: cell-based, Acinetobacter baumannii; conditions: Acinetobacter baumannii, preliminary MBC
# A. baumannii A473 [14] = experiment: MIC without and with sub-inhibitory polymyxin B (Example 4); assay type: cell-based, Acinetobacter baumannii
# A. baumannii A489 = experiment: as above; assay type: cell-based, Acinetobacter baumannii; conditions: for MIC without PB/MIC + PB: A. baumannii A489; for MIC: Acinetobacter baumannii
# A. baumannii NCTC 13301 [15] = experiment: as above; assay type: cell-based, Acinetobacter baumannii
# A. baumannii NCTC 13301 [16] = experiment: as above; assay type: cell-based, Acinetobacter baumannii; remark: listed apart in the source
# A. baumannii A14 [17] = experiment: as above; assay type: cell-based, Acinetobacter baumannii; conditions: 1st experiment
# A. baumannii A14 [18] = experiment: as above; assay type: cell-based, Acinetobacter baumannii; conditions: A. baumannii A14; +0.06 μg/ml PB; 2nd experiment
# A. baumannii A14 [19] = experiment: Preliminary MBC without and with sub-inhibitory polymyxin B (Example 4); assay type: cell-based, Acinetobacter baumannii; conditions: A. baumannii A14; +0.06 μg/ml polymyxin B; preliminary MBC; 1st experiment
# [20] = ratio, PB 0.06 μg/ml, 1st experiment
structure (smiles),measurement,setting,value
"NCC[C@H](O)C(=O)N[C@@H]1C[C@H](N)[C@@H](O[C@H]2O[C@H](CN)[C@@H](O)[C@H](O)[C@H]2O)[C@H](O)[C@H]1O[C@H]1O[C@H](CO)[C@@H](O)[C@H](N)[C@H]1O [Amikacin, reference compound]",Change of activity (MIC) in presence of polymyxin B compared to without polymyxin B,[1],not significantly affected
same,"Range ratios MIC without PB/MIC with PB Oct. 14, 2008 n = 11",[1]; 2nd experiment,1-16
same,MIC without PB/MIC + PB,"A. baumannii ATCC 19606 [2]; +0.06 μg/ml PB, 2nd experiment",2
same,MIC without PB/MIC + PB,A. baumannii ATCC 19606 [2]; [20],2
same,MIC,"A. baumannii ATCC 19606 [2]; ATCC19606, A. baumannii ATCC 19606, +0.06 μg/ml PB, 2nd experiment, read-out: MIC",8 µg/mL
same,MIC,"A. baumannii ATCC 19606 [2]; ATCC19606, read-out: MIC +0.06 μg/ml PB, A. baumannii ATCC 19606, +0.06 μg/ml polymyxin B, 1st experiment",8 µg/mL
same,MBC,"A. baumannii ATCC 19606 [3]; ATCC19606, A. baumannii ATCC 19606, +0.06 μg/ml PB, 2nd experiment, read-out: MBC",8 µg/mL
same,MBC,"A. baumannii ATCC 19606 [3]; ATCC19606, read-out: MBC +0.06 μg/ml PB, A. baumannii ATCC 19606, +0.06 μg/ml polymyxin B, 1st experiment",8 µg/mL
same,MIC without PB/MIC + PB,"A. baumannii J2; +[…] PB, 2nd experiment",16
same,MIC without PB/MIC + PB,"A. baumannii J2; ratio, PB […], 1st experiment",8
same,MIC,"A. baumannii J2; J2, A. baumannii J2, +[…] PB, 2nd experiment, read-out: MIC",0.5 µg/mL
same,MIC,"A. baumannii J2; J2, read-out: MIC +[…] PB, A. baumannii J2, +[…] polymyxin B, 1st experiment",4 µg/mL
same,MIC without PB/MIC + PB,"[4]; Acinetobacter spp. H064200250 (OXA51), +[…] PB, 2nd experiment",8
same,MIC without PB/MIC + PB,"[4]; Acinetobacter spp. H064200250, ratio, PB […], 1st experiment",1
same,MIC,"[4]; Acinetobacter, Acinetobacter spp. H064200250 (OXA51), +[…] PB, 2nd experiment, read-out: MIC",1 µg/mL
same,MIC without PB/MIC + PB,A. baumannii A329,1
same,MIC without PB/MIC + PB,"A. baumannii A387 [5]; +0.06 μg/ml PB, 2nd experiment",≥1
same,MIC without PB/MIC + PB,A. baumannii A387 [5]; [20],≥1
same,MIC,"A. baumannii A387 [5]; Acinetobacter baumannii, A387",128 µg/mL
same,MBC,A. baumannii A387 [6],128 µg/mL
same,MIC without PB/MIC + PB,A. baumannii A390 [7]; A. baumannii A390,≥2
same,MIC,"A. baumannii A390 [7]; Acinetobacter baumannii, A390, A. baumannii A390, read-out: MIC",64 µg/mL
same,MBC,A. baumannii A14 [8],8 µg/mL
same,MBC,A. baumannii A390 [9],64 µg/mL
same,MBC,A. baumannii A473 [10],128 µg/mL
same,MBC,"A. baumannii NCTC 13301 [11]; NCTC13301, A. baumannii NCTC 13301, +[…] PB, preliminary MBC, 2nd experiment, read-out: MBC",64 µg/mL
same,MBC,"A. baumannii NCTC 13301 [11]; NCTC13301, read-out: MBC +[…] PB",> 128 µg/mL
same,MIC without PB/MIC + PB,A. baumannii A401,≥1
same,MIC without PB/MIC + PB,"A. baumannii A472 [12]; A. baumannii A472, ratio, PB […], 1st experiment",≥8
same,MIC,"A. baumannii A472 [12]; A472, A. baumannii A472, +[…] PB, 2nd experiment, read-out: MIC",32 µg/mL
same,MIC,"A. baumannii A472 [12]; A472, read-out: MIC +[…] PB, A. baumannii A472, +[…] polymyxin B, 1st experiment",16 µg/mL
same,MBC,"A. baumannii A472 [13]; A472, A. baumannii A472, +[…] PB, 2nd experiment, read-out: MBC",32 µg/mL
same,MBC,"A. baumannii A472 [13]; A472, read-out: MBC +[…] PB, A. baumannii A472, +[…] polymyxin B, 1st experiment",32 µg/mL
same,MIC without PB/MIC + PB,"A. baumannii A473 [14]; A. baumannii A473, +0.06 μg/ml PB, 2nd experiment",≥1
same,MIC,"A. baumannii A473 [14]; Acinetobacter baumannii, A473",128 µg/mL
same,MIC without PB/MIC + PB,"A. baumannii A489; +[…] PB, 2nd experiment",≥2
same,MIC without PB/MIC + PB,"A. baumannii A489; ratio, PB […], 1st experiment",≥1
same,MIC,"A. baumannii A489; A489, A. baumannii A489, +[…] PB, 2nd experiment, read-out: MIC",64 µg/mL
same,MIC,"A. baumannii A489; A489, read-out: MIC +[…] PB, A. baumannii A489, +[…] polymyxin B, 1st experiment",128 µg/mL
same,MIC without PB/MIC + PB,"A. baumannii NCTC 13301 [15]; A. baumannii NCTC 13301, ratio, PB […], 1st experiment",≥1
same,MIC,"A. baumannii NCTC 13301 [15]; Acinetobacter baumannii, NCTC13301, read-out: MIC +[…] PB",> 128 µg/mL
same,MIC without PB/MIC + PB,"A. baumannii NCTC 13301 [16]; A. baumannii NCTC 13301, +[…] PB, 2nd experiment",≥1
same,MIC,"A. baumannii NCTC 13301 [16]; Acinetobacter baumannii, NCTC13301",128 µg/mL
same,MIC +0.06 μg/ml PB,A. baumannii A14 [17]; +0.06 μg/ml polymyxin B,16 µg/mL
same,MIC without PB/MIC + PB,"A. baumannii A14 [17]; ratio, PB 0.06 μg/ml",2
same,MIC,A. baumannii A14 [18],8 µg/mL
same,MIC without PB/MIC + PB,A. baumannii A14 [18],2
same,MBC +0.06 μg/ml PB,A. baumannii A14 [19],16 µg/mL
